The results in this text go back to paper PMC9300923 (Frontiers in Pharmacology, 2022).

In one series the target is SLY (Suilysin) (Streptococcus suis, UniProt Q55996). As to the kind of experiment: biochemical.
Series [1] concerns the molecule itself. As to the kind of experiment: SDS-PAGE without beta-mercaptoethanol + Western blot of oligomers; purified SLO incubated with or without luteolin at different concentrations, 37°C for 30 min; then 40°C for 10 min in 1x SDS-PAGE loading buffer without β-ME; blot with rabbit polyclonal anti-Streptolysin O; oligomer/monomer ratio by densitometry. For orientation: Immunoblotting shows a protein as a band on a membrane.

Chain of SLY (Suilysin) (Q55996 28-497 limits assumed): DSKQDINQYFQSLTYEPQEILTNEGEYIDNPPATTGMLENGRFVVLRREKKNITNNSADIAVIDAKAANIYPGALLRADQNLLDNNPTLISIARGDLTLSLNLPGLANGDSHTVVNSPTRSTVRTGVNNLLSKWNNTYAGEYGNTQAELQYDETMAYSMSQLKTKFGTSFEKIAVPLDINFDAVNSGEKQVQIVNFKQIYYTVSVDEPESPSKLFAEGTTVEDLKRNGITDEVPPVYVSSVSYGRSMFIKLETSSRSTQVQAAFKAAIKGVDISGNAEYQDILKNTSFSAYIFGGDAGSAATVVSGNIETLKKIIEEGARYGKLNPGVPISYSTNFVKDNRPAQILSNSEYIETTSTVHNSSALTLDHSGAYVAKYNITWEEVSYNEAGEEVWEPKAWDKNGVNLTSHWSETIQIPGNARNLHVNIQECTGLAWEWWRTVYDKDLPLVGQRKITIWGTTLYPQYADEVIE

In turn, `O=c1cc(-c2ccc(O)c(O)c2)oc2cc(O)cc(O)c12` [Luteolin] had a Kd on SLY (Suilysin) of 554 nM.

B1: Streptolysin O (natural protein, UniProt P0C0I3 78-571, looked up)
chain: LAPKEMPLESAEKEEKKSEDKKKSEEDHTEEINDKIYSLNYNELEVLAKNGETIENFVPKEGVKKADKFIVIERKKKNINTTPVDISIIDSVTDRTYPAALQLANKGFTENKPDAVVTKRNPQKIHIDLPGMGDKATVEVNDPTYANVSTAIDNLVNQWHDNYSGGNTLPARTQYTESMVYSKSQIEAALNVNSKILDGTLGIDFKSISKGEKKVMIAAYKQIFYTVSANLPNNPADVFDKSVTFKELQRKGVSNEAPPLFVSNVAYGRTVFVKLETSSKSNDVEAAFSAALKGTDVKTNGKYSDILENSSFTAVVLGGDAAEHNKVVTKDFDVIRNVIKDNATFSRKNPAYPISYTSVFLKNNKIAGVNNRTEYVETTSTEYTSGKINLSHQGAYVAQYEILWDEINYDDKGKEVITKRRWDNNWYSKTSPFSTVIPLGANSRNIRIMARECTGLAWEWWRKVIDERDVKLSKEINVNISGSTLSPYGSITYK
notes: Streptolysin O of Group A Streptococcus (Streptococcus pyogenes), amplified from DNA of GAS strain M1; After the BamHI site the forward primer encodes LAPKEMP; The reverse primer runs to the natural stop codon (...YGSITYK-stop); Surmise: cloning into the BamHI/SacI sites of pET28a with the gene's own stop codon would give an N-terminal His6-thrombin site-T7 tag leader; also called SLO; SLO protein
In the case of B1, in series [1], the binding result is “binds”.

Broadly, the Kd is the free concentration of one partner at which half of the binding sites on the other are occupied at equilibrium, for simple one-to-one binding.
